The values below come from patent publication US7534805B2, “Imidazole derivatives, their preparation and their use as medicaments” (Societe de Conseils de Recherches Et d'Applications …, priority 2003, dated 2009).

The term melting point denotes the temperature of the solid-liquid transition.

A value given as a limit tells only on which side of the number the result lay.

The molecule `CCCCCCc1ccc(-c2c[nH]c(COc3ccccc3)n2)cc1` [Example 13, 4-(4-hexylphenyl)-2-(phenoxymethyl)-1H-imidazole] yielded a melting point of 151 to 153 °C.
In turn, `c1ccc(OCc2nc(-c3ccc(-n4ccnc4)cc3)c[nH]2)cc1` [Example 11, 4-[4-(1H-imidazol-1-yl)phenyl]-2-(phenoxymethyl)-1H-imidazole] yielded a melting point of 194 to 196 °C.
The molecule `CCOC(=O)c1ccc(Oc2ccc(-c3c[nH]c(COc4ccccc4)n3)cc2)cc1` [Example 25, ethyl 4-{4-[2-(phenoxymethyl)-1H-imidazol-4-yl]phenoxy}benzoate] had a melting point of 100 to 102 °C.
To `COCCOc1ccc(-c2c[nH]c(COc3ccccc3)n2)cc1` [Example 19, 4-[4-(2-methoxyethoxy)phenyl]-2-(phenoxymethyl)-1H-imidazole] belongs 159 to 161 °C; to `Fc1ccc(Oc2ccc(-c3c[nH]c(COc4ccccc4)n3)cc2)cc1F` [Example 52, 4-[4-(3,4-difluorophenoxy)phenyl]-2-(phenoxymethyl)-1H-imidazole], 188 to 190 °C.
The result for `O=[N+]([O-])c1cccc(Oc2ccc(-c3c[nH]c(COc4ccccc4)n3)cc2)c1` [Example 31, 4-[4-(3-nitrophenoxy)phenyl]-2-(phenoxymethyl)-1H-imidazole] reads 140 to 142 °C; that for `Cl.Nc1ccccc1Oc1ccc(-c2c[nH]c(COc3ccccc3)n2)cc1`, 88 to 89 °C.
To `Cl.c1ccc(OCc2nc(-c3ccc(OCCN4CCCCC4)cc3)c[nH]2)cc1` belongs 227 to 229 °C; to `FC(F)(F)CCCOc1ccc(-c2c[nH]c(COc3ccccc3)n2)cc1` [Example 20, 2-(phenoxymethyl)-4-[4-(4,4,4-trifluorobutoxy)phenyl]-1H-imidazole], 194 to 196 °C; to `c1ccc(OCc2nc(-c3ccc(-c4ccccc4)cc3)c[nH]2)cc1` [Example 3, 4-(1,1′-biphenyl-4-yl)-2-(phenoxymethyl)-1H-imidazole], 185 to 187 °C.
On to `Fc1ccc(Oc2ccc(-c3c[nH]c(CSc4ccccc4)n3)cc2)cc1` [Example 4, 4-[4-(4-fluorophenoxy)phenyl]-2-[(phenylthio)methyl]-1H-imidazole], for which the melting point was in the range of 108 to 110 °C.
The result for `c1ccc(COc2ccc(Oc3ccc(-c4c[nH]c(COc5ccccc5)n4)cc3)cc2)cc1` [Example 33, 4-{4-[4-(benzyloxy)phenoxy]phenyl}-2-(phenoxymethyl)-1H-imidazole] reads 134 to 136 °C.
To `Fc1ccccc1Oc1ccc(-c2c[nH]c(COc3ccccc3)n2)cc1` [Example 51, 4-[4-(2-fluorophenoxy)phenyl]-2-(phenoxymethyl)-1H-imidazole] belongs 154 to 156 °C; to `O=[N+]([O-])c1ccc(Oc2ccc(-c3c[nH]c(COc4ccccc4)n3)cc2)cc1` [Example 15, 4-[4-(4-nitrophenoxy)phenyl]-2-(phenoxymethyl)-1H-imidazole], 187 to 189 °C.
To `Oc1ccc(Oc2ccc(-c3c[nH]c(COc4ccccc4)n3)cc2)cc1` [Example 34, 4-{4-[2-(phenoxymethyl)-1H-imidazol-4-yl]phenoxy}phenol] belongs 211 to 213 °C; to `Cc1cccc(Oc2ccc(-c3c[nH]c(COc4ccccc4)n3)cc2)c1` [Example 49, 4-[4-(3-methylphenoxy)phenyl]-2-(phenoxymethyl)-1H-imidazole], 160 to 162 °C.
Regarding `COc1ccc(Oc2ccc(-c3c[nH]c(COc4ccccc4)n3)cc2)cc1` [Example 12, 4-[4-(4-methoxyphenoxy)phenyl]-2-(phenoxymethyl)-1H-imidazole], the melting point fell in the range of 132 to 134 °C.
To `Cl.NCC(=O)Nc1ccc(Oc2ccc(-c3c[nH]c(COc4ccccc4)n3)cc2)cc1` belongs more than 250 °C; to `CCCCOc1ccc(-c2c[nH]c(COc3ccccc3)n2)cc1` [Example 14, 4-(4-butoxyphenyl)-2-(phenoxymethyl)-1H-imidazole], 179 to 181 °C; to `CCOC(=O)c1ccc(-c2c[nH]c(COc3ccccc3)n2)cc1` [Example 24, ethyl 4-[2-(phenoxymethyl)-1H-imidazol-4-yl]benzoate], 133 to 135 °C.
With `Cl.NCc1ccc(Oc2ccc(-c3c[nH]c(COc4ccccc4)n3)cc2)cc1`, the melting point is more than 300 °C.
As to `O=[N+]([O-])c1ccccc1Oc1ccc(-c2c[nH]c(COc3ccccc3)n2)cc1` [Example 40, 4-[4-(2-nitrophenoxy)phenyl]-2-(phenoxymethyl)-1H-imidazole], the melting point lay in the range of 128 to 129 °C.
`Cl.Nc1cccc(Oc2ccc(-c3c[nH]c(COc4ccccc4)n3)cc2)c1` displayed a melting point of more than 300 °C.
The result for `c1ccc(Cc2ccc(-c3c[nH]c(COc4ccccc4)n3)cc2)cc1` [Example 48, 4-(4-benzylphenyl)-2-(phenoxymethyl)-1H-imidazole] reads 147 to 148 °C.
`Cc1[nH]c(COc2ccccc2)nc1-c1ccc(Oc2ccc(F)cc2)cc1` [Example 21, 4-[4-(4-fluorophenoxy)phenyl]-5-methyl-2-(phenoxymethyl)-1H-imidazole] returned a melting point of less than 40 °C.
The result for `Fc1cccc(Oc2ccc(-c3c[nH]c(COc4ccccc4)n3)cc2)c1F` [Example 56, 4-[4-(2,3-difluorophenoxy)phenyl]-2-(phenoxymethyl)-1H-imidazole] reads 127 to 129 °C.
The result for `O=C(O)C(F)(F)F.O=C(c1ccccc1)c1ccc(-c2c[nH]c(COc3ccccc3)n2)cc1` reads less than 50 °C; that for `Nc1ccc(Oc2ccc(-c3c[nH]c(COc4ccccc4)n3)cc2)cc1[N+](=O)[O-].O=C(O)C(F)(F)F`, 178 to 180 °C.
The result for `Fc1ccc(OCc2nc(-c3ccc(Oc4ccc(F)cc4)cc3)c[nH]2)cc1` [Example 5, 2-[(4-fluorophenoxy)methyl]-4-[4-(4-fluorophenoxy)phenyl]-1H-imidazole] reads 193 to 195 °C.
`Fc1cc(F)cc(Oc2ccc(-c3c[nH]c(COc4ccccc4)n3)cc2)c1` [Example 47, 4-[4-(3,5-difluorophenoxy)phenyl]-2-(phenoxymethyl)-1H-imidazole] came in with a melting point of 160 to 161 °C.
To `Cl.Clc1ccccc1Oc1ccc(-c2c[nH]c(COc3ccccc3)n2)cc1` belongs 158 to 160 °C; to `N#Cc1cccc(Oc2ccc(-c3c[nH]c(COc4ccccc4)n3)cc2)c1` [Example 39, 3-{4-[2-(phenoxymethyl)-1H-imidazol-4-yl]phenoxy}benzonitrile], 161 to 163 °C.
To `O=S(=O)(c1ccccc1)c1ccc(-c2c[nH]c(COc3ccccc3)n2)cc1` [Example 7, 2-(phenoxymethyl)-4-[4-(phenylsulphonyl)phenyl]-1H-imidazole] belongs 192 to 194 °C.
Turning to `CS(=O)(=O)c1ccc(Oc2ccc(-c3c[nH]c(COc4ccccc4)n3)cc2)cc1` [Example 27, 4-{4-[4-(methylsulphonyl)phenoxy]phenyl}-2-(phenoxymethyl)-1H-imidazole], the melting point was in the range of 143 to 145 °C.
To `Brc1ccc(Oc2ccc(-c3c[nH]c(COc4ccccc4)n3)cc2)cc1.O=C(O)C(F)(F)F` belongs 174 to 176 °C.
